Measured values as given in ChEMBL document CHEMBL1157928, “Discovery and structural optimization of pyrazole derivatives as novel inhibitors of Cdc25B” (Bioorg Med Chem Lett, 2010).
Blank lines part the entries; values can stand above or below the molecule they belong to.

How the values were obtained:
[1] = target: T1, M-phase inducer phosphatase 2 (Homo sapiens, UniProt P30305); assay: Inhibition of CDC25B
T1 sequence (P30305 whole entry): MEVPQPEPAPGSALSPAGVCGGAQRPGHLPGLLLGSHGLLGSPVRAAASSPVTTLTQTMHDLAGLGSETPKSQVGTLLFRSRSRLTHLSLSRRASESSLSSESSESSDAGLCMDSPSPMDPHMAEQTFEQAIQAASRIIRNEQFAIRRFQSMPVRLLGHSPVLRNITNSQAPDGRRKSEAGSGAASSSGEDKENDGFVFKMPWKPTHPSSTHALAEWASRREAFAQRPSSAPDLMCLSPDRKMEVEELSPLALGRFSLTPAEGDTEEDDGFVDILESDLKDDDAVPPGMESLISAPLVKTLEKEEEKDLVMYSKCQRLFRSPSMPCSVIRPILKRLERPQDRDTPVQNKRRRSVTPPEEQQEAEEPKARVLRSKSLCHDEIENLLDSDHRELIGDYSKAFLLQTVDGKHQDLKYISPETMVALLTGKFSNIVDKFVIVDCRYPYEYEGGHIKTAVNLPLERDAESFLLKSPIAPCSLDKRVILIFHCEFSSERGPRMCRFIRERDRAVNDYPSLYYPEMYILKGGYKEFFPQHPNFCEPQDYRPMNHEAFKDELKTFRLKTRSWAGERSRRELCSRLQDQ

[2] = target: Tyrosine-protein phosphatase non-receptor type 6 (Homo sapiens, UniProt P29350); assay: Inhibition of SHP1
Tyrosine-protein phosphatase non-receptor type 6, sequence (P29350 whole entry): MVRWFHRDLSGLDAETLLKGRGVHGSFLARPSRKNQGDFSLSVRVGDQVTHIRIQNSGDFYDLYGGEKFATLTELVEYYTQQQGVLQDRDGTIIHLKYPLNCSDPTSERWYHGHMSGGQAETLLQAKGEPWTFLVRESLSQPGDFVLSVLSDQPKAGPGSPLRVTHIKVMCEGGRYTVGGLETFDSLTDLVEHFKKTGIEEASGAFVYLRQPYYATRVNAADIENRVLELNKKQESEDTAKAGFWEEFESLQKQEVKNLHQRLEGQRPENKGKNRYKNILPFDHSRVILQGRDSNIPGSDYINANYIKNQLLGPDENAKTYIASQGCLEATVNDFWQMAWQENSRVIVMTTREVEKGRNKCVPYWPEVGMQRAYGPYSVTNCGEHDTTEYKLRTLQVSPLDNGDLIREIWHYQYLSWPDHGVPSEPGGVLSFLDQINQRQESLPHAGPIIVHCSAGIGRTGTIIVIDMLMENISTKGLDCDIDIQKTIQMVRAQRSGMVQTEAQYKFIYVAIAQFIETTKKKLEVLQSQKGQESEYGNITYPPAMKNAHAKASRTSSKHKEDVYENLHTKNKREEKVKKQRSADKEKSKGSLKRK

[3] = target: Receptor-type tyrosine-protein phosphatase F (Homo sapiens, UniProt P10586); assay: Inhibition of PTP-LAR
Receptor-type tyrosine-protein phosphatase F, sequence (P10586 whole entry): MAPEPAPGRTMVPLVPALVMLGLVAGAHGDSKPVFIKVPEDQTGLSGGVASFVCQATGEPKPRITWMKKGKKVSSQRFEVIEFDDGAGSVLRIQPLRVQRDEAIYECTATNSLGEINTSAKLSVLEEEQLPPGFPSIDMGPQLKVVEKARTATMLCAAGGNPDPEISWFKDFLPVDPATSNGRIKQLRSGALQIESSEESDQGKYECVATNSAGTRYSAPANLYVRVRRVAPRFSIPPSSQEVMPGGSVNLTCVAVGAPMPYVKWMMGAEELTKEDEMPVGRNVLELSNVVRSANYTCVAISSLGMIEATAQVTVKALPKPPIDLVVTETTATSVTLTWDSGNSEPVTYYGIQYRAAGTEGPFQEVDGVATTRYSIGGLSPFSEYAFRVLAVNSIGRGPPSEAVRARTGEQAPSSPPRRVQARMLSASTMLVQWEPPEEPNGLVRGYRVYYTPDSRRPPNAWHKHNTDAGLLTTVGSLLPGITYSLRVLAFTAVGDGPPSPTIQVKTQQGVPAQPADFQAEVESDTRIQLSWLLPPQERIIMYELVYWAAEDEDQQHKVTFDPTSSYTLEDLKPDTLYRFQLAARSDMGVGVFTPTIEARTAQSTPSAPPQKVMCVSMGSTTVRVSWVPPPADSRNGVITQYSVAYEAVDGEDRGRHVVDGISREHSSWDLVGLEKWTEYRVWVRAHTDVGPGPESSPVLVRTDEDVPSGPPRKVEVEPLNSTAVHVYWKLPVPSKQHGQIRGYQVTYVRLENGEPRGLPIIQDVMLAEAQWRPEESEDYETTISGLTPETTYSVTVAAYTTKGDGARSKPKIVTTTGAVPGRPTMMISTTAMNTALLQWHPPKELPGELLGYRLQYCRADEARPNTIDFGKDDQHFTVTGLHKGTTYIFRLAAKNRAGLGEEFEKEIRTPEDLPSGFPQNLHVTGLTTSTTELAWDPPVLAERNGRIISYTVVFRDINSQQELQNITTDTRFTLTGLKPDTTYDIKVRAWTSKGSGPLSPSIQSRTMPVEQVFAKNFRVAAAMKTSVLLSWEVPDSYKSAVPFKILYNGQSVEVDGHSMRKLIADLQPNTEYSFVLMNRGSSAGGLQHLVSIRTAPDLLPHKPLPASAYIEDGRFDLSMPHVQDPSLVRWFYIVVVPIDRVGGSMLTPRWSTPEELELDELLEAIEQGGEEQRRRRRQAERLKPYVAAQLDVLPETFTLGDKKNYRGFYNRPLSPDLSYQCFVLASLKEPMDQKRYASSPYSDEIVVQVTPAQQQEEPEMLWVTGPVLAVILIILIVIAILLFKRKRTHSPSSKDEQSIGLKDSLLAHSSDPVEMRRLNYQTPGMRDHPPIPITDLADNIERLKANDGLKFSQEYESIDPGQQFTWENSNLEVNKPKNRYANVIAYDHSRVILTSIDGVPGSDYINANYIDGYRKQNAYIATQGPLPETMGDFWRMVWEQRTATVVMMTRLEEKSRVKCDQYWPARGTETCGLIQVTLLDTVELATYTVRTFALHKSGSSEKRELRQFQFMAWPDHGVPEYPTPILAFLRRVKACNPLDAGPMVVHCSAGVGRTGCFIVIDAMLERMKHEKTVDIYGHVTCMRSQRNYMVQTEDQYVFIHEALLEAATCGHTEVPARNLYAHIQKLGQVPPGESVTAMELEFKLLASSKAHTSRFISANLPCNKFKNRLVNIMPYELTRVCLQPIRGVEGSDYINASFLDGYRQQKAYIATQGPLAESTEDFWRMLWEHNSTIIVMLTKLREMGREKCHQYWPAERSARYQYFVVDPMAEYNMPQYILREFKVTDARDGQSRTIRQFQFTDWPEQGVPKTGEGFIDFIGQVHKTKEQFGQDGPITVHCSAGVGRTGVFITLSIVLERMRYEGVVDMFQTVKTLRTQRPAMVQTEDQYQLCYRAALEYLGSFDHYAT

[4] = target: T2, Tyrosine-protein phosphatase non-receptor type 2 (Homo sapiens, UniProt P17706); assay: Inhibition of TCPTP
T2 sequence (P17706 whole entry): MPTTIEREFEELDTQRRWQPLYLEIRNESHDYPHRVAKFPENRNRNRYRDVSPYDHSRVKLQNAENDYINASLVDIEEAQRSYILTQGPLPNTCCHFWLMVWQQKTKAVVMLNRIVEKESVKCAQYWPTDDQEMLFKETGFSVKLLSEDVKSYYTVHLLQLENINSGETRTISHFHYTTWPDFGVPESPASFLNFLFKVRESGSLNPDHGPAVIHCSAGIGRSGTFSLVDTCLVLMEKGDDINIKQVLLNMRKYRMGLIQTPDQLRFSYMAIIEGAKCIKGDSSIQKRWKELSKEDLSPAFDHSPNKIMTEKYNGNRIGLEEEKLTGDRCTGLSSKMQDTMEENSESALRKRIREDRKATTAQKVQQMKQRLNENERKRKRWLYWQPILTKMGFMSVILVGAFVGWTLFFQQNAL

[5] = target: T3, Tyrosine-protein phosphatase non-receptor type 1 (Homo sapiens, UniProt P18031); assay: Inhibition of PTP1B
T3 sequence (P18031 whole entry): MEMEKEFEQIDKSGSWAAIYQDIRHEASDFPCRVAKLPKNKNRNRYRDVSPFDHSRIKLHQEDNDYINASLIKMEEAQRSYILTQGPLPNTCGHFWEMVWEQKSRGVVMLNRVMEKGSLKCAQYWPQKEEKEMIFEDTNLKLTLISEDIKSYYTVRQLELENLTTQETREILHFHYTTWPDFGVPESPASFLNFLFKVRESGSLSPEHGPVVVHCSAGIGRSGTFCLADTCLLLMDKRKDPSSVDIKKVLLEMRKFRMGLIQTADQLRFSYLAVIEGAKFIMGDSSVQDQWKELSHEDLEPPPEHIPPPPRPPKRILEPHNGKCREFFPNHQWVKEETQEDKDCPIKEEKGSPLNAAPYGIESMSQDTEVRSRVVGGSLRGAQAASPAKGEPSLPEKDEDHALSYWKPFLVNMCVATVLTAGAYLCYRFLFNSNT

[6] = target: T4, Tyrosine-protein phosphatase non-receptor type 11 (Homo sapiens, UniProt Q06124); assay: Inhibition of SHP2
T4 sequence (Q06124 whole entry): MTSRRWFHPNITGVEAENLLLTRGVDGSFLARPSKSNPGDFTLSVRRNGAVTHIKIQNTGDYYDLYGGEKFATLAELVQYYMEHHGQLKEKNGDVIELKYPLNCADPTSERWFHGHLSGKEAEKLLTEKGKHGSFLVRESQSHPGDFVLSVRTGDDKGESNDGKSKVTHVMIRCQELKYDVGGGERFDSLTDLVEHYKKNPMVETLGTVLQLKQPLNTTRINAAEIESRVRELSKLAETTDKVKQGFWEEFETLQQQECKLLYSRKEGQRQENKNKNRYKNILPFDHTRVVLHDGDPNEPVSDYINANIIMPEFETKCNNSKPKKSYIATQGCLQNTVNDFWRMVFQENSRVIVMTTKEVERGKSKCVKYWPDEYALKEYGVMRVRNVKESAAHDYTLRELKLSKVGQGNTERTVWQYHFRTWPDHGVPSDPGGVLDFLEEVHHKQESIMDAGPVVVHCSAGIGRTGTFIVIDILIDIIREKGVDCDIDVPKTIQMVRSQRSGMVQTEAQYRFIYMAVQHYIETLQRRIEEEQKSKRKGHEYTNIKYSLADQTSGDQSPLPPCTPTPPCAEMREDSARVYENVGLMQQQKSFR

SMILES: CCCCCCCCCCCCCC(=O)c1n[nH]c2c1C(=O)N(c1ccc([N+](=O)[O-])cc1)C2=O
IC50 ([1]; read-out: IC50): 500 nM

SMILES: CCOC(=O)c1n[nH]c2c1C(=O)N(c1ccc(F)cc1)C2=O
IC50 [1]: Not Active

SMILES: CCOC(=O)c1n[nH]c2c1C(=O)N(c1ccc(Cl)cc1)C2=O
IC50 ([1]; read-out: IC50): 37400 nM

SMILES: CCOC(=O)c1n[nH]c2c1C(=O)N(c1ccccc1C(=O)OC)C2=O
IC50 [1]: Not Active

SMILES: CCOC(=O)c1n[nH]c2c1C(=O)N(c1cccc(F)c1)C2=O
IC50 [1]: Not Active

SMILES: CCCCCCCCCCCCCCCCCC(=O)c1n[nH]c2c1C(=O)N(c1cccc(Br)c1)C2=O
IC50 ([1]; read-out: IC50): 1010 nM

SMILES: CCOC(=O)c1n[nH]c2c1C(=O)N(c1cccc([N+](=O)[O-])c1)C2=O
IC50 [1]: Not Active

SMILES: CCOC(=O)c1n[nH]c2c1C(=O)N(c1cccc(Cl)c1)C2=O
IC50 [1]: Not Active

SMILES: CCOC(=O)c1n[nH]c2c1C(=O)N(c1cccc(Br)c1)C2=O
IC50 [1]: Not Active

SMILES: CCCCCCCCCCCCCCCCCC(=O)c1n[nH]c2c1C(=O)N(Cc1ccc(F)cc1)C2=O
IC50 ([1]; read-out: IC50): 2080 nM

SMILES: CCCCCCCCCCCCCCCCCC(=O)c1n[nH]c2c1C(=O)N(Cc1ccccc1)C2=O
IC50 ([1]; read-out: IC50): 730 nM

SMILES: O=C(c1ccccc1)c1n[nH]c2c1C(=O)N(c1ccc([N+](=O)[O-])cc1)C2=O
IC50 [1]: Not Active

SMILES: CCOC(=O)c1n[nH]c2c1C(=O)N(c1ccccc1Br)C2=O
IC50 [1]: Not Active

SMILES: CCCCCCCCCCCCCCCCCC(=O)c1n[nH]c2c1C(=O)N(c1ccc(F)c(Cl)c1)C2=O
IC50 ([1]; read-out: IC50): 1150 nM

SMILES: CCOC(=O)c1n[nH]c2c1C(=O)N(c1ccccc1Cl)C2=O
IC50 [1]: Not Active

SMILES: CCCCCCCCCCCCCCCCCC(=O)c1n[nH]c2c1C(=O)N(c1ccccc1Br)C2=O
IC50 ([1]; read-out: IC50): 250 nM

SMILES: CCCCCCCCCCCCCCCCCC(=O)c1nn(C)c2c1C(=O)N(c1ccccc1)C2=O
IC50 ([1]; read-out: IC50): 30000 nM

SMILES: CCCCCCCCCCCCCCCCCC(=O)c1n[nH]c2c1C(=O)N(c1cccc(C)c1)C2=O
IC50 ([1]; read-out: IC50): 2600 nM

SMILES: CCCCCCCCCCCCCCCCCC(=O)c1cc(C(=O)Nc2ccsc2C(=O)O)[nH]n1
IC50 ([1]; read-out: IC50): 120 nM | IC50 ([2]; read-out: IC50): 9790 nM | IC50 [3]: Not Active | IC50 ([4]; read-out: IC50): 1160 nM | IC50 ([5]; read-out: IC50): 410 nM | IC50 ([6]; read-out: IC50): 12200 nM

SMILES: CCCCCCCCCCCCCCCCCC(=O)c1n[nH]c2c1C(=O)N(c1ccccc1C)C2=O
IC50 ([1]; read-out: IC50): 2130 nM

SMILES: CCCCCCCCCCCCCCCCCC(=O)c1n[nH]c2c1C(=O)N(c1ccccc1)C2=O
IC50 ([1]; read-out: IC50): 230 nM | IC50 [2]: Not Active | IC50 [3]: Not Active | IC50 ([4]; read-out: IC50): 3310 nM | IC50 ([5]; read-out: IC50): 1560 nM | IC50 ([6]; read-out: IC50): 9590 nM

SMILES: CCOC(=O)c1n[nH]c2c1C(=O)N(c1ccc(OC)cc1)C2=O
IC50 [1]: Not Active

SMILES: CCCCCCCCCCCCCCCCCC(=O)c1n[nH]c2c1C(=O)N(C1CCCCC1)C2=O
IC50 ([1]; read-out: IC50): 2920 nM

Next, values leading:

IC50 ([1]; read-out: IC50): 170 nM
SMILES: CCCCCCCCCCCCCCCCCC(=O)c1n[nH]c2c1C(=O)N(c1ccc(Cl)cc1)C2=O

IC50 ([1]; read-out: IC50): 520 nM
SMILES: CCCCCCCCCCCCCCCCCC(=O)c1n[nH]c2c1C(=O)N(c1cccc(OC)c1)C2=O

IC50 ([1]; read-out: IC50): 160 nM | IC50 ([2]; read-out: IC50): 10600 nM | IC50 [3]: Not Active | IC50 ([4]; read-out: IC50): 1300 nM | IC50 ([5]; read-out: IC50): 350 nM | IC50 ([6]; read-out: IC50): 15200 nM
SMILES: CCCCCCCCCCCCCCCCCC(=O)c1cc(C(=O)Nc2ccccc2C(=O)O)[nH]n1

IC50 ([1]; read-out: IC50): 1470 nM
SMILES: CCCCCCCCCCCCCCCCCC(=O)c1n[nH]c2c1C(=O)N(c1cccc(F)c1)C2=O

IC50 ([1]; read-out: IC50): 1110 nM
SMILES: CCCCCCCCCCCCCCCCCC(=O)c1n[nH]c2c1C(=O)N(c1cccc([N+](=O)[O-])c1)C2=O

IC50 [1]: Not Active
SMILES: CCOC(=O)c1n[nH]c2c1C(=O)N(c1ccccc1F)C2=O

IC50 ([1]; read-out: IC50): 310 nM
SMILES: CCCCCCCCCCCCCCCCCC(=O)c1n[nH]c2c1C(=O)N(c1cccc3ccccc13)C2=O

IC50 ([1]; read-out: IC50): 960 nM
SMILES: CCCCCCCCCCCCCCCCCC(=O)c1n[nH]c2c1C(=O)N(c1ccc(Br)cc1)C2=O

IC50 ([1]; read-out: IC50): 31900 nM | IC50 [2]: Not Active | IC50 [3]: Not Active | IC50 [4]: Not Active | IC50 [5]: Not Active | IC50 [6]: Not Active
SMILES: CCOC(=O)c1n[nH]c2c1C(=O)N(c1ccc([N+](=O)[O-])cc1)C2=O

IC50 ([1]; read-out: IC50): 490 nM
SMILES: CCCCCCCCCCCCCCCCCC(=O)c1n[nH]c2c1C(=O)N(c1ccc(C(=O)OC)cc1)C2=O

IC50 ([1]; read-out: IC50): 410 nM
SMILES: CCCCCCCCCCCCCCCCCC(=O)c1n[nH]c2c1C(=O)N(c1ccccc1C(=O)OC)C2=O

IC50 ([1]; read-out: IC50): 4330 nM
SMILES: CCCCCCCCCCCCCCCCCC(=O)c1n[nH]c2c1C(=O)N(c1ccc(C)cc1)C2=O

IC50 ([1]; read-out: IC50): 340 nM
SMILES: CCCCCCCCCCCCCCCCCC(=O)c1n[nH]c2c1C(=O)N(c1ccsc1C(=O)OC)C2=O

IC50 ([1]; read-out: IC50): 320 nM
SMILES: CCCCCCCCCCCCCCCCCC(=O)c1n[nH]c2c1C(=O)N(c1ccccc1C(F)(F)F)C2=O

IC50 ([1]; read-out: IC50): 3360 nM | IC50 [2]: Not Active | IC50 [3]: Not Active | IC50 ([4]; read-out: IC50): 18600 nM | IC50 ([5]; read-out: IC50): 7160 nM | IC50 [6]: Not Active
SMILES: CCCCCCCCCCCCCCCCCC(=O)c1cc(C(=O)Nc2ccsc2C(=O)OC)[nH]n1

IC50 ([1]; read-out: IC50): 240 nM
SMILES: CCCCCCCCCCCCCCCCCC(=O)c1n[nH]c2c1C(=O)N(c1cccc(Cl)c1)C2=O

IC50 ([1]; read-out: IC50): 540 nM
SMILES: CCCCCCCCCCCCCCCCCC(=O)c1n[nH]c2c1C(=O)N(c1ccc(F)cc1)C2=O

IC50 ([1]; read-out: IC50): 450 nM
SMILES: CCCCCCCCCCCCCCCCCC(=O)c1n[nH]c2c1C(=O)N(c1ccccc1F)C2=O

IC50 [1]: Not Active
SMILES: CCOC(=O)c1n[nH]c2c1C(=O)N(c1ccccc1OC)C2=O

IC50 ([1]; read-out: IC50): 540 nM
SMILES: CCCCCCCCCCCCCCCCCC(=O)c1n[nH]c2c1C(=O)N(c1ccc(OC)cc1)C2=O

IC50 ([1]; read-out: IC50): 1390 nM
SMILES: CCCCCCCCCC(=O)c1n[nH]c2c1C(=O)N(c1ccc([N+](=O)[O-])cc1)C2=O

IC50 ([1]; read-out: IC50): 5080 nM | IC50 [2]: Not Active | IC50 [3]: Not Active | IC50 ([4]; read-out: IC50): 18700 nM | IC50 ([5]; read-out: IC50): 7490 nM | IC50 [6]: Not Active
SMILES: CCCCCCCCCCCCCCCCCC(=O)c1cc(C(=O)Nc2ccccc2C(=O)OC)[nH]n1

IC50 ([1]; read-out: IC50): 400 nM
SMILES: CCCCCCCCCCCCCCCCCC(=O)c1n[nH]c2c1C(=O)N(c1ccc([N+](=O)[O-])cc1)C2=O
